Tested on: 958667-338-R-J2-PDC tumor spheroids viability
Experiment: Anticancer human tumor 958667-338-R-J2-PDC patient-derived colon adenocarcinoma cell line growth inhibition [PI3K]
Conditions: spheroids with HUVEC and MSC; for IC50: curve of first compound; for viability, T/C: stronger effect = lower value; active = viability on the fitted dose curve at most 10% of control; inactive = the rest
Outline: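 High-throughput combination screen: PI3K inhibitors crossed with targeted small molecules on complex spheroids of tumor cells, HUVEC and MSCs at 37 degrees C, 5% CO2. Top concentration was at or near clinical Cmax (otherwise 10 microM), with half-log decrements.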

[1] = second compound 0.0316 µM, first compound 0.000316 µM
[2] = second compound 0.0316 µM, first compound 0.001 µM
[3] = second compound 0.0316 µM, first compound 0.00316 µM
[4] = second compound 0.0316 µM, first compound 0.01 µM
[5] = second compound 0.0316 µM, first compound 0.0316 µM
[6] = second compound 0.0316 µM, first compound 0.1 µM
[7] = second compound 0.1 µM, first compound 0.000316 µM
[8] = second compound 0.1 µM, first compound 0.001 µM
[9] = second compound 0.1 µM, first compound 0.00316 µM
[10] = second compound 0.1 µM, first compound 0.01 µM
[11] = second compound 0.1 µM, first compound 0.0316 µM
[12] = second compound 0.1 µM, first compound 0.1 µM
[13] = second compound 0.316 µM, first compound 0.000316 µM
[14] = second compound 0.316 µM, first compound 0.001 µM
[15] = second compound 0.316 µM, first compound 0.00316 µM
[16] = second compound 0.316 µM, first compound 0.01 µM
[17] = second compound 0.316 µM, first compound 0.0316 µM
[18] = second compound 0.316 µM, first compound 0.1 µM
[19] = second compound 1 µM, first compound 0.000316 µM
[20] = second compound 1 µM, first compound 0.001 µM
[21] = second compound 1 µM, first compound 0.00316 µM
[22] = second compound 1 µM, first compound 0.01 µM
[23] = second compound 1 µM, first compound 0.0316 µM
[24] = second compound 1 µM, first compound 0.1 µM
[25] = second compound 3.16 µM, first compound 0.000316 µM
[26] = second compound 3.16 µM, first compound 0.001 µM
[27] = second compound 3.16 µM, first compound 0.00316 µM
[28] = second compound 3.16 µM, first compound 0.01 µM
[29] = second compound 3.16 µM, first compound 0.0316 µM
[30] = second compound 3.16 µM, first compound 0.1 µM
[31] = second compound 10 µM, first compound 0.000316 µM
[32] = second compound 10 µM, first compound 0.001 µM
[33] = second compound 10 µM, first compound 0.00316 µM
[34] = second compound 10 µM, first compound 0.01 µM
[35] = second compound 10 µM, first compound 0.0316 µM
[36] = second compound 10 µM, first compound 0.1 µM
[37] = second compound 0.0316 µM, first compound 0.316 µM
[38] = second compound 0.0316 µM, first compound 1 µM
[39] = second compound 0.0316 µM, first compound 3.16 µM
[40] = second compound 0.0316 µM, first compound 10 µM
[41] = second compound 0.1 µM, first compound 0.316 µM
[42] = second compound 0.1 µM, first compound 1 µM
[43] = second compound 0.1 µM, first compound 3.16 µM
[44] = second compound 0.1 µM, first compound 10 µM
[45] = second compound 0.316 µM, first compound 0.316 µM
[46] = second compound 0.316 µM, first compound 1 µM
[47] = second compound 0.316 µM, first compound 3.16 µM
[48] = second compound 0.316 µM, first compound 10 µM
[49] = second compound 1 µM, first compound 0.316 µM
[50] = second compound 1 µM, first compound 1 µM
[51] = second compound 1 µM, first compound 3.16 µM
[52] = second compound 1 µM, first compound 10 µM
[53] = second compound 3.16 µM, first compound 0.316 µM
[54] = second compound 3.16 µM, first compound 1 µM
[55] = second compound 3.16 µM, first compound 3.16 µM
[56] = second compound 3.16 µM, first compound 10 µM
[57] = second compound 10 µM, first compound 0.316 µM
[58] = second compound 10 µM, first compound 1 µM
[59] = second compound 10 µM, first compound 3.16 µM
[60] = second compound 10 µM, first compound 10 µM
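Note: spheroids exposed to compounds for seven days before readout.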

CC(=O)c1c(C)c2cnc(Nc3ccc(N4CCNCC4)cn3)nc2n(C2CCCC2)c1=O + CC(Nc1ncnc2nc[nH]c12)c1cc2cccc(Cl)c2c(=O)n1-c1ccccc1
> 0.1 µM: IC50 (second compound 0.0316 µM) | IC50 (second compound 0.1 µM) | IC50 (second compound 0.316 µM) | IC50 (second compound 1 µM) | IC50 (second compound 3.16 µM) | IC50 (second compound 10 µM)
inactive: viability, T/C [1] 106% | viability, T/C [2] 101% | viability, T/C [3] 95.3% | viability, T/C [4] 117% | viability, T/C [5] 90.2% | viability, T/C [6] 91.6% | viability, T/C [7] 117% | viability, T/C [8] 103% | viability, T/C [9] 89.2% | viability, T/C [10] 96.8% | viability, T/C [11] 105% | viability, T/C [12] 74.4% | viability, T/C [13] 98.6% | viability, T/C [14] 89.5% | viability, T/C [15] 91.3% | viability, T/C [16] 103% | viability, T/C [17] 118% | viability, T/C [18] 83.1% | viability, T/C [19] 99.3% | viability, T/C [20] 126% | viability, T/C [21] 95.4% | viability, T/C [22] 106% | viability, T/C [23] 104% | viability, T/C [24] 87.9% | viability, T/C [25] 108% | viability, T/C [26] 71.5% | viability, T/C [27] 118% | viability, T/C [28] 97.5% | viability, T/C [29] 97% | viability, T/C [30] 95.7% | viability, T/C [31] 103% | viability, T/C [32] 79.5% | viability, T/C [33] 95% | viability, T/C [34] 101% | viability, T/C [35] 90.4% | viability, T/C [36] 67.6%

CC(C)n1nc(-c2ccc3oc(N)nc3c2)c2c(N)ncnc21 + CC(Nc1ncnc2nc[nH]c12)c1cc2cccc(Cl)c2c(=O)n1-c1ccccc1
0.0593 µM: IC50 (second compound 3.16 µM)
0.0717 µM: IC50 (second compound 0.1 µM)
0.0829 µM: IC50 (second compound 1 µM)
0.0614 µM: IC50 (second compound 10 µM)
inactive: viability, T/C [1] 96.8% | viability, T/C [2] 95.3% | viability, T/C [3] 98.5% | viability, T/C [4] 112% | viability, T/C [5] 73.6% | viability, T/C [6] 42.1% | viability, T/C [7] 127% | viability, T/C [8] 101% | viability, T/C [9] 107% | viability, T/C [10] 92.8% | viability, T/C [11] 74.7% | viability, T/C [12] 39.4% | viability, T/C [13] 95.2% | viability, T/C [14] 84.7% | viability, T/C [15] 90.8% | viability, T/C [16] 98.9% | viability, T/C [17] 69.2% | viability, T/C [18] 44.7% | viability, T/C [19] 95.2% | viability, T/C [20] 92.8% | viability, T/C [21] 82.4% | viability, T/C [22] 100% | viability, T/C [23] 73.9% | viability, T/C [24] 45.4% | viability, T/C [25] 86% | viability, T/C [26] 91.4% | viability, T/C [27] 98.5% | viability, T/C [28] 89.3% | viability, T/C [29] 60.7% | viability, T/C [30] 41.2% | viability, T/C [31] 100% | viability, T/C [32] 75.1% | viability, T/C [33] 70.4% | viability, T/C [34] 83.5% | viability, T/C [35] 71.8% | viability, T/C [36] 33.7%
0.0749 µM: IC50 (second compound 0.0316 µM)
0.0779 µM: IC50 (second compound 0.316 µM)

CCCS(=O)(=O)Nc1ccc(F)c(C(=O)c2c[nH]c3ncc(-c4ccc(Cl)cc4)cc23)c1F + CC(Nc1ncnc2nc[nH]c12)c1cc2cccc(Cl)c2c(=O)n1-c1ccccc1
inactive: viability, T/C [5] 121% | viability, T/C [6] 97.5% | viability, T/C [37] 99.8% | viability, T/C [38] 116% | viability, T/C [39] 131% | viability, T/C [40] 34.7% | viability, T/C [11] 95.8% | viability, T/C [12] 91.7% | viability, T/C [41] 101% | viability, T/C [42] 99.9% | viability, T/C [43] 133% | viability, T/C [44] 17.6% | viability, T/C [17] 82.2% | viability, T/C [18] 79.8% | viability, T/C [45] 92.4% | viability, T/C [46] 104% | viability, T/C [47] 134% | viability, T/C [48] 18.5% | viability, T/C [23] 102% | viability, T/C [24] 107% | viability, T/C [49] 121% | viability, T/C [50] 89.5% | viability, T/C [51] 101% | viability, T/C [52] 16.6% | viability, T/C [29] 121% | viability, T/C [30] 119% | viability, T/C [53] 83.4% | viability, T/C [54] 116% | viability, T/C [55] 117% | viability, T/C [56] 16.2% | viability, T/C [35] 79.5% | viability, T/C [36] 99% | viability, T/C [57] 103% | viability, T/C [58] 91.9% | viability, T/C [59] 99.6% | viability, T/C [60] 17.9%
6.18 µM: IC50 (second compound 10 µM)
6.5 µM: IC50 (second compound 0.1 µM)
6.66 µM: IC50 (second compound 3.16 µM)
6.36 µM: IC50 (second compound 0.316 µM)
6.31 µM: IC50 (second compound 1 µM)
7.99 µM: IC50 (second compound 0.0316 µM)

CNC(=O)c1ccc(N2C(=S)N(c3ccc(C#N)c(C(F)(F)F)c3)C(=O)C2(C)C)cc1F + CC(Nc1ncnc2nc[nH]c12)c1cc2cccc(Cl)c2c(=O)n1-c1ccccc1
> 10 µM: IC50 (second compound 0.0316 µM) | IC50 (second compound 0.1 µM) | IC50 (second compound 0.316 µM) | IC50 (second compound 1 µM) | IC50 (second compound 3.16 µM) | IC50 (second compound 10 µM)
inactive: viability, T/C [5] 103% | viability, T/C [6] 94.7% | viability, T/C [37] 105% | viability, T/C [38] 101% | viability, T/C [39] 113% | viability, T/C [40] 99.2% | viability, T/C [11] 119% | viability, T/C [12] 98.7% | viability, T/C [41] 87.1% | viability, T/C [42] 83.5% | viability, T/C [43] 114% | viability, T/C [44] 87% | viability, T/C [17] 103% | viability, T/C [18] 88.3% | viability, T/C [45] 101% | viability, T/C [46] 107% | viability, T/C [47] 121% | viability, T/C [48] 107% | viability, T/C [23] 96.7% | viability, T/C [24] 91.3% | viability, T/C [49] 102% | viability, T/C [50] 96.4% | viability, T/C [51] 104% | viability, T/C [52] 94% | viability, T/C [29] 91.8% | viability, T/C [30] 86.3% | viability, T/C [53] 72.7% | viability, T/C [54] 101% | viability, T/C [55] 119% | viability, T/C [56] 84.2% | viability, T/C [35] 103% | viability, T/C [36] 96.5% | viability, T/C [57] 101% | viability, T/C [58] 87.9% | viability, T/C [59] 115% | viability, T/C [60] 74.8%

From PubChem BioAssay AID1963963 (Molecular Pharmacology Branch, DTP, NCI, 2024)
